The results in this text go back to ChEMBL document CHEMBL2401670, “Synthesis and biological evaluation of rhodanine derivatives bearing a quinoline moiety as potent antimicrobial agents” (Bioorg Med Chem Lett, 2013).

≈ marks a conversion by molar mass, not a printed value. Some results are limits rather than exact numbers.

Experiment [1] concerns Staphylococcus aureus. As to the kind of experiment: Ratio of gatifloxacin MIC to compound MIC for quinolone-resistant Staphylococcus aureus CCARM 3519. Format: functional.
For experiment [2], the system named is Staphylococcus aureus. As to the kind of experiment: Ratio of norfloxacin MIC to compound MIC for quinolone-resistant Staphylococcus aureus CCARM 3505. Format: functional.
Experiment [3] concerns Staphylococcus aureus. As to the kind of experiment: Ratio of norfloxacin MIC to compound MIC for quinolone-resistant Staphylococcus aureus CCARM 3519. Format: functional.
Experiment [4] has as its system Staphylococcus aureus. As to the kind of experiment: Antibacterial activity against methicillin-resistant Staphylococcus aureus CCARM 3506 after 24 hrs by broth microdilution method. The class given is functional. To be noted: CCARM 3506, 24 h.
For experiment [5], the system named is Staphylococcus aureus. As to the kind of experiment: Antibacterial activity against Staphylococcus aureus KCTC 503 after 24 hrs by broth microdilution method. The class given is functional. To be noted: KCTC 503, 24 h.
Experiment [6] deals with Staphylococcus aureus. As to the kind of experiment: Antibacterial activity against quinolone-resistant Staphylococcus aureus CCARM 3519 after 24 hrs by broth microdilution method. Format: functional. To be noted: CCARM 3519, 24 h.
Experiment [7] has as its system Staphylococcus aureus. As to the kind of experiment: Ratio of moxifloxacin MIC to compound MIC for quinolone-resistant Staphylococcus aureus CCARM 3519. The class given is functional.
Experiment [8] concerns Staphylococcus aureus. As to the kind of experiment: Ratio of moxifloxacin MIC to compound MIC for quinolone-resistant Staphylococcus aureus CCARM 3505. The class given is functional.
The test system of experiment [9] is Staphylococcus aureus. As to the kind of experiment: Ratio of norfloxacin MIC to compound MIC for methicillin-resistant Staphylococcus aureus CCARM 3506. Format: functional.
Another experiment has as its system Escherichia coli. As to the kind of experiment: Antibacterial activity against Escherichia coli CCARM 1356 after 24 hrs by broth microdilution method. The class given is functional. To be noted: CCARM 1356, 24 h.
The subject of experiment [10] is Staphylococcus aureus. As to the kind of experiment: Antibacterial activity against Staphylococcus aureus RN4220 after 24 hrs by broth microdilution method. Format: functional. To be noted: RN4220, 24 h.
In experiment [11] the test system is Staphylococcus aureus. As to the kind of experiment: Ratio of norfloxacin MIC to compound MIC for methicillin-resistant Staphylococcus aureus CCARM 3167. The class given is functional.
For experiment [12], the system named is Staphylococcus aureus. As to the kind of experiment: Ratio of gatifloxacin MIC to compound MIC for quinolone-resistant Staphylococcus aureus CCARM 3505. Format: functional.
The subject of experiment [13] is Staphylococcus aureus. As to the kind of experiment: Antibacterial activity against Staphylococcus aureus KCTC 209 after 24 hrs by broth microdilution method. Format: functional. The settings on record: KCTC 209, 24 h.
Experiment [14] relates to Staphylococcus aureus. As to the kind of experiment: Antibacterial activity against quinolone-resistant Staphylococcus aureus CCARM 3505 after 24 hrs by broth microdilution method. The class given is functional. To be noted: CCARM 3505, 24 h.
Experiment [15] deals with Staphylococcus aureus. As to the kind of experiment: Antibacterial activity against methicillin-resistant Staphylococcus aureus CCARM 3167 after 24 hrs by broth microdilution method. Format: functional. The settings on record: CCARM 3167, 24 h.
The next experiment relates to HeLa. As to the kind of experiment: Cytotoxicity against human HeLa cells after 48 hrs by MTT assay. The class given is cell-based.

In the case of `Cc1ccc(COc2ccc3nc(Cl)c(/C=C4\SC(=S)N([C@@H](Cc5ccccc5)C(=O)O)C4=O)cc3c2)cc1`, the Ratio in the experiment on Staphylococcus aureus [1], in the experiment on Staphylococcus aureus [2], with Staphylococcus aureus [3], with Staphylococcus aureus [7], in the experiment on Staphylococcus aureus [8] and with Staphylococcus aureus [9] was 4 each time. The Ratio in the experiment on Staphylococcus aureus [11] and with Staphylococcus aureus [12] was 4 in each case. Further, the MIC was 1 µg/mL (≈ 1.74 µM) with Staphylococcus aureus [4]; 8 µg/mL (≈ 13.9 µM) in the experiment with Staphylococcus aureus [5]; 1 µg/mL (≈ 1.74 µM) against Staphylococcus aureus [6]; more than 64 µg/mL in the experiment on Escherichia coli; 2 µg/mL (≈ 3.48 µM) against Staphylococcus aureus [10]; 8 µg/mL (≈ 13.9 µM) in the experiment with Staphylococcus aureus [13]. Besides, the MIC against Staphylococcus aureus [14] and against Staphylococcus aureus [15] was 1 µg/mL (≈ 1.74 µM) in each case. Moreover, in the experiment with HeLa, the IC50 turned out to be 13.3 µg/mL (≈ 23.1 µM).

Turning to `CC(C)C[C@@H](C(=O)O)N1C(=O)/C(=C/c2cc3cc(OCc4ccc(Cl)cc4)ccc3nc2Cl)SC1=S`, the Ratio in the experiment with Staphylococcus aureus [1], in the experiment with Staphylococcus aureus [2], in the experiment with Staphylococcus aureus [3], in the experiment on Staphylococcus aureus [7], in the experiment with Staphylococcus aureus [8] and in the experiment with Staphylococcus aureus [9] was 4 in each case. In addition, the Ratio in the experiment with Staphylococcus aureus [11] and in the experiment with Staphylococcus aureus [12] was 4 each time. The MIC with Staphylococcus aureus [4] was 1 µg/mL (≈ 1.78 µM); with Staphylococcus aureus [5], 4 µg/mL (≈ 7.12 µM); against Staphylococcus aureus [6], 1 µg/mL (≈ 1.78 µM); against Escherichia coli it was more than 64 µg/mL; against Staphylococcus aureus [10] it was 1 µg/mL (≈ 1.78 µM); against Staphylococcus aureus [13], 4 µg/mL (≈ 7.12 µM). Also, the MIC against Staphylococcus aureus [14] and with Staphylococcus aureus [15] was 1 µg/mL (≈ 1.78 µM) in each case.
